Measurements published in EP0049913A2, “New ethenylimidazole derivatives, processes for their preparation and pharmaceutical compositions containing them; intermediates, useful in their preparation and a process for the preparation thereof” (GIST-BROCADES N.V., priority 1980, dated 1982).
Converted amounts (≈) assume the structure as drawn. Structures can show the parent of a compound that is named as a salt. Where two headings read alike, the source gives them in different places.

Experiments:
[1] = system: Candida albicans strain A 7; experiment: method A: systemic infection with Candida albicans in mice; format: in vivo; conditions: three doses daily for 3 days, control animals = 1
Experimental: A. Testing of compounds against systemic infection with Candida albicans in mice.
Female Swiss SPF mice, weighing […], ten animals per group, were challenged intravenously with 0.5 ml Candida albicans strain A 7 suspension containing sufficient yeast cells to kill 50% of the untreated animals within 5 days. The treatment consisted of three doses daily administered for 3 days either orally or intraperitoneally. Infected, non treated mice served as controls for mortality. The number of mice surviving the challenge was recorded daily and the ratio between the "median survival duration (days)" of the treated and untreated mice was determined, the survival duration of the control animals being graded as 1 (IMSD = Index Median Survival Duration).

[2] = system: Trichophyton mentagrophytes strain R 177; experiment: method C: experimental dermatophytic infection in guinea pigs; format: in vivo; conditions: local treatment, 2% in Plastibase, twice daily for 10 days; scored on 14th day; grades 1-4; untreated animals 4
Experimental: C. Testing of compounds against experimental dermatophytic infection. (Trichophyton mentagrophytes)
Out-bred blanco TNO female guinea pigs, five animals per group, weighing + 350 g, were prepared by depilation high in the middle of the back over an area 2.5 cm in diameter.
Inoculum was prepared from a culture of Trichophyton mentagrophytes strain R 177 on Mycological Agar. The harvested mycelial mat was diluted in a 20% dextrose solution in water and the suspension was smeared over the depilated area.
Local treatment with 2% concentration of the antimycotic in Plastibase started 72 hours after infection and concurrently the application of vehiculum (Plastibase) to the infected animals was initiated. The application was continued for 10 days and consisted of two applications daily of a measured quantity of ointment to the infected area.
Scoring of lesions and the final check was made on the 14th day after the infection was initiated. The lesions were graded as to the following parameters: • 1 = slight whitish scaling, with erythema • 2 = slight whitish or light yellow scaling with solitary haemorrhagias • 3 = thick whitish-yellow crust or scab • 4 = haemorrhagic ulcer or giant haemorrhagic thick scutula (crust).
The final results were recorded as the average of lesion intensities (A.L.I.) for each experimental group (treated with either test compound or reference compound and untreated control).

Candida albicans = experiment: agar dilution test, Candida albicans; format: cell-based; conditions: for Potency Ratio (P.R.) MIC 50 / Potency Ratio (P.R.) MIC 90: ratio to activity of miconazol (= 1)
Experimental: (§1) The compounds of the invention were tested in vitro and in vivo. The in vitro activities were determined by means of the usual agar dilution test. The results after two and five days were expressed as MIC 50 and MIC 90, i.e. the minimum concentrations giving complete inhibition of 50% or 90% of the strains tested in […] and as Potency Ratio (P.R.), i.e. the ratio between the activity of the test compound and the activity of miconazol (= 1).

[3] = system: Candida albicans strain A 7; experiment: method B: vaginitis candidamycetica in mice (vaginal reduction); format: in vivo; conditions: clotrimazol = 100%
Experimental: Female Swiss SPF mice, weighing 19-21 g, fifteen animals per group, following an intramuscular premedication by Dimenformon prolongatum, were inoculated intravaginally with +5.105 CFU of Candida albicans strain A 7, harvested from a culture on Mycological Agar and suspended in physiological saline.
The treatment commenced 72 hours after infection when the candidiasis had reached its peak. A four day local treatment period was employed, consisting of two applications daily of 0.02 ml of antimycotics in Plastibase intravaginally. Alternatively, the test compound was administered orally in three doses daily for three days.
On the seventh day after infection the mice were killed, the vagina was excised and homogenized in saline and cultivated on Mycological Agar. The yeast cells were then counted and expressed as CFU/vagina. Results were analysed statistically using the T-test. The results were compared with those obtained with clotrimazol, the action of which was considered as 100%.

Trichophyton spp. = experiment: agar dilution test, Trichophyton spp.; format: cell-based; conditions: 5 d, ratio to activity of miconazol (= 1)
Experimental: as §1

[4] = 48 h, after 2 d, complete inhibition of 50% of the strains tested, read-out: MIC 50
[5] = 48 h, after 2 d, complete inhibition of 90% of the strains tested, read-out: MIC 90
[6] = 120 h, after 5 d, complete inhibition of 50% of the strains tested, read-out: MIC 50
[7] = 120 h, after 5 d, complete inhibition of 90% of the strains tested, read-out: MIC 90
[8] = local intravaginal treatment in Plastibase, two applications daily for four days
[9] = p.o., three doses daily for three days

MIC50 (Candida albicans; [4])	MIC90 (Candida albicans; [5])	MIC50 (Candida albicans; [6])	MIC90 (Candida albicans; [7])	SMILES	IMSD (Index Median Survival Duration) ([1]; i.p.)	IMSD (Index Median Survival Duration) ([1]; p.o.)	A.L.I. (average of lesion intensities) [2]	Potency Ratio (P.R.) MIC 50 (Candida albicans; 2 d)	Potency Ratio (P.R.) MIC 90 (Candida albicans; 2 d)	Potency Ratio (P.R.) MIC 50 (Candida albicans; 5 d)	Potency Ratio (P.R.) MIC 90 (Candida albicans; 5 d)	vag.red. % [3, 8]	Potency Ratio (P.R.) MIC 50 (Trichophyton spp.)	Potency Ratio (P.R.) MIC 90 (Trichophyton spp.)	MIC50 (Candida albicans; 48 h)	MIC90 (Candida albicans; 48 h)	MIC50 (Candida albicans; 120 h)	MIC90 (Candida albicans; 120 h)	vag.red. % [3, 9]
3 ng/mL	8 ng/mL	4 ng/mL	9 ng/mL	CCCC(=Cn1ccnc1)c1ccc(Cl)cc1Cl.Cl [I, 1-[2-(2,4-dichlorophenyl)-1-pentenyl]-1H-imidazol hydrochloride]	1.4	3.0	0	1.0	1.2	1.0	0.7	35%	35.3	13.9	–	–	–	–	–
2 ng/mL (≈ 0.00767 µM)	5 ng/mL (≈ 0.0192 µM)	4 ng/mL (≈ 0.0153 µM)	6 ng/mL (≈ 0.023 µM)	CCC(C)C(=Cn1ccnc1)c1ccc(Cl)cc1 (stereo not shown) [II, 1-[2-(4-chlorophenyl)-3-methyl-1-pentenyl] -lH-imidazole]	3.8	4.6	0	1.7	1.7	1.2	1.9	98%	2.8	2.1	–	–	–	–	–
5 ng/mL	10 ng/mL	6 ng/mL	11 ng/mL	CCC(C)C(=Cn1ccnc1)c1ccc(Cl)cc1Cl.Cl (stereo not shown) [III, 1-[2-(2,4-Dichlorophenyl)-3-methyl-1-pentenyl]-1H-imidazole hydrochloride]	3.5	4.1	0	0.7	0.9	0.7	1.2	136%	1.7	0.8	–	–	–	–	–
–	–	–	–	CC(C)(C)C(=Cn1ccnc1)c1ccc(Cl)cc1Cl.O=[N+]([O-])O [IV, 1-[2-(2,4-dichlorophenyl)-3,3-dimethyl-1-butenyl]-1H-imidazole nitrate]	5.1	3.1	0	0.7	0.9	0.5	0.5	59%	15.1	4.1.	3 ng/mL	5 ng/mL	5 ng/mL	11 ng/mL	24%

SMILES	MIC50 (Candida albicans; [4])	MIC90 (Candida albicans; [5])	MIC50 (Candida albicans; [6])	MIC90 (Candida albicans; [7])	IMSD (Index Median Survival Duration) ([1]; i.p.)	IMSD (Index Median Survival Duration) ([1]; p.o.)	A.L.I. (average of lesion intensities) [2]	Potency Ratio (P.R.) MIC 50 (Candida albicans; 2 d)	Potency Ratio (P.R.) MIC 90 (Candida albicans; 2 d)	Potency Ratio (P.R.) MIC 50 (Candida albicans; 5 d)	Potency Ratio (P.R.) MIC 90 (Candida albicans; 5 d)	vag.red. % [3, 8]	Potency Ratio (P.R.) MIC 50 (Trichophyton spp.)	Potency Ratio (P.R.) MIC 90 (Trichophyton spp.)	MIC50 (Candida albicans; 48 h)	MIC90 (Candida albicans; 48 h)	MIC50 (Candida albicans; 120 h)	MIC90 (Candida albicans; 120 h)	vag.red. % [3, 9]
Clc1ccc(C(=Cn2ccnc2)C2CCCCC2)cc1 [V, 1-[2-(4-chlorophenyl)-2-cyclohexylethenyl] -lH-imidazole hydrochloride]	3 ng/mL	8 ng/mL	5 ng/mL	10 ng/mL	3.5	4.1	–	1.3	1.0	1.1	1.1	–	0.8	0.6	–	–	–	–	150 (p.o.) %
Clc1ccc(C(=Cn2ccnc2)C2CCCCC2)c(Cl)c1 [VI, 1-[2-cyclohexyl-2-(2,4-dichlorophenyl)ethenyl]-IH-imidazole hydrochloride]	4 ng/mL	8 ng/mL	5 ng/mL	11 ng/mL	3.7	3.9	0.4	0.9	0.7	0.8	0.6	97%	1.9	1.0	–	–	–	–	52%
